Test results published in patent US20180265934A1, “COINCIDENCE REPORTER GENE SYSTEM” (The United States of America, as represented by the …, priority 2013, published 2018).
Where a name gives a salt, the structure may show the parent alone. Read-outs that look alike come from different tables or passages of the source. Where a SMILES comes first, the peptide text is derived from it. The star is where a group is joined. Cbz = O=C(OCc1ccccc1)*

What was measured:
[1] = system: cAMP-response element (CRE) / CREB pathway; assay: LOPAC1280 qHTS, 4×CRE-driven FLuc-P2A-RLuc coincidence reporter (pCI-6.24) in GripTite 293 MSR cells; assay type: cell-based
Method: This protocol measures bioluminescence derived from both FLuc and RLuc expression from a single assay. […] Sixteen hours after transfection, cells were trypsinized and then dispensed at 2,000 cells/20 μL/well in 384-well tissue culture treated white/solid bottom plates (Greiner Bio-One North America, Monroe, N.C.). The assay plates were incubated at 37° C. for 10 hours before adding the DUAL-GLO detection reagent (Promega). Luminescence from luciferase activity was detected by using a VIEWLUX plate reader (PerkinElmer, Waltham, Mass.).
Sixteen hours after transfection, cells were trypsinized and then dispensed at 500 cells/4 μL/well in 1,536-well tissue culture treated white/solid bottom plates (Greiner Bio-One North America) using a multidrop combi dispenser (Thermo Fisher Scientific). […] The assay plates were incubated at 37° C. for 10 hours before adding the DUAL-GLO detection reagent (3.5 μL+3.5 μL for each well) (Promega). Luminescence from luciferase activity was detected by using VIEWLUX (PerkinElmer). Each experimental plate contained forskolin as a positive control and DMSO as a negative control. Percentage activity was defined as the percentage signal relative to forskolin (100%) and DMSO (0%).

[2] = system: cAMP-response element (CRE), adenylyl cyclase signaling; assay: Compound test, 24-point titration, 4×CRE-driven FLuc-P2A-RLuc (pCI-6.24), 384-well; assay type: cell-based; conditions: PTC124 on FLuc, BTS on RLuc; relative to non-treated control
Method: For the compound test, forskolin, PTC124 and BTS were prepared in a 24-point intraplate titration format and pre-diluted in the cell culture medium. Purified pCI-6.24 construct was transfected into GRIPTITE 293 MSR cells (Life Technologies). Sixteen hours post transfection, cells were trypsinized and then dispensed at 2,000 cells/15 μL/well in 384-well tissue culture treated white/solid bottom plates (Greiner Bio-One North America). Five μL of pre-diluted compound was transferred into assay plates, resulting in a final concentration ranging from 0.027 nM to 227 μM (forskolin) and 0.011 nM to 91 μM (PTC124 and BTS). The assay plates were incubated at 37° C. for 10 hours. FLuc and RLuc activities were then detected using DUAL-GLO reagent (Promega) and a VIEWLUX plate reader (PerkinElmer). Concentration-response curves and concentrations of half-maximal activity (EC50) for each compound were generated by using PRISM 4 software (GraphPad Software, Inc., La Jolla, Calif.).

[3] = system: PARK2 (Parkin) gene expression; assay: Compound library screening, Parkin coincidence reporter cell line (FLuc-P2A-NLuc in PARK2 locus, BE(2)-M17 cells), 1536-well; assay type: cell-based, human; conditions: 24 h, titration
Method: Construction of the Parkin coincidence reporter cell line by TALEN-mediated genome editing was carried out as follows. To generate a double-strand cleavage of the genomic DNA in the first codon of the PARK2 gene, constructs encoding transcription activator-like effector nuclease (TALEN) pairs (Right and Left) encoding components of the heterodimeric FokI nuclease were generated as described by Huang et al., Nature Biotechnology, 29: 699-700 (2011). The TALEN pair was designed to generate a double-strand cleavage at or near the first translation codon (ATG) within the Parkin gene. These constructs were transfected with Lipofectamine LTX (Life Technologies) into BE(2)-M17 cells (ATCC) […] along with a GFP-expressing marker plasmid and the coincidence reporter donor plasmid. After 48 hours of incubation in a tissue culture incubator, GFP-positive cells were sorted by FACS analysis and single clones were isolated and expanded. Once sufficient cell populations for each clone were achieved, analysis of correct genomic insertion of the Fluc-P2A-NLuc-PEST-PolyA coincidence reporter cassette that replaced the “ATGATAG” (SEQ ID NO: 362) sequence at the […] of the PARK2 gene exon 1 was ascertained by PCR and DNA sequencing of genomic DNA preparations (QIAGEN).
Compound library screening in 1536-well plates was carried out as follows. The Parkin coincidence reporter cell line was seeded at a density of 2000 cell/well into white, solid bottom, tissue-culture treated (Greiner Bio-One), 1536-well microplates in a total of 5 μL/well of culture medium. After a 16 hour incubation in a tissue-culture incubator, a compound pin tool (Wako) was used to transfer 20 nL of compound dissolved in DMSO for library plates to the assay plates. Compounds were present in either a 6 or 12-point titration in the library plates. DMSO vehicle, CCCP, and PTC-124 were also added to the designated control well. After a 24 hour incubation in the tissue culture incubator, the volume in each well of both plates was reduced to 2 μL with a microplate aspiration system (BioTek) and then 2 μL of Firefly Luciferase assay reagent (Promega) was added to every well each plate and luminescent signal from each well of each plate was measured on a VIEWLUX plate reader (PerkinElmer). Following the first read, 2 μL of NanoLuc assay reagent (Promega) including a proprietary firefly luciferase inhibitor (to quench the firefly reaction) was added to every well of each plate. After a second 15 minute incubation at room temperature, the NanoLuc signal from each well of each plate was measured on the VIEWLUX. Raw luminescent signal is expressed as a % of the positive control (10 uM CCCP for NanoLuc and 500 nM PTC-124 for FLuc).

[4] = Table 5, coincident activators; FLuc readout, 10 h, ~4 nM to 57 μM; read-out: FLuc EC50
[5] = Table 5, coincident activators; RLuc readout, 10 h, ~4 nM to 57 μM; read-out: RLuc EC50
[6] = GripTite 293 MSR, 10 h, Table 5, coincident activators; FLuc readout, 10 h, ~4 nM to 57 μM; read-out: FLuc EC50
[7] = GripTite 293 MSR, 10 h, Table 5, coincident activators; RLuc readout, 10 h, ~4 nM to 57 μM; read-out: RLuc EC50
[8] = Table 6, compounds activating RLuc only; RLuc readout, 10 h; read-out: RLuc EC50
[9] = GripTite 293 MSR; Table 6, compounds activating RLuc only; RLuc readout, 10 h; read-out: RLuc EC50
[10] = GripTite 293 MSR, 10 h, Table 6, compounds activating RLuc only; RLuc readout, 10 h; read-out: RLuc EC50

Row | Compound | Ratio F/R ([1]; FLuc EC50 / RLuc EC50, Table 5) | EC50 [1, 6] [µM] | EC50 [1, 7] [µM] | also measured
1 | NC(=S)c1ccc[n+]([C@@H]2OC(COP(=O)([O-])OP(=O)(O)OC[C@H]3O[C@@H](n4cnc5c(N)ncnc54)[C@H](OP(=O)(O)O)[C@@H]3O)C(O)C2O)c1 (stereo in doubt) [compound 15, Thio-NADP sodium] | 0.95 | – | – | EC50 [1, 4]: 2.39 µM; EC50 [1, 5]: 2.51 µM
2 | Cc1ccc(S(=O)(=O)NCc2ccccc2)cc1 [BTS] | – | – | – | effect on reporter activity by reporter stabilization [2]: increase the activity of the reporters
3 | CC(C)C[C@@H](C=O)NC(=O)[C@H](CC(C)C)NC(=O)[C@H](CC(C)C)NC(=O)OCc1ccccc1 [MG-132] (Cbz-Leu-Leu-Leu-aldehyde) | – | – | – | coincident reporter response (FLuc and NLuc) [3]: do not elicit a coincident reporter response; signal obtained through reporter interference [3]: NLuc signal is obtained through reporter interference
4 | O=c1c(O)c(-c2ccc(O)c(O)c2)oc2cc(O)cc(O)c12 [Quercetin] | – | – | – | coincident reporter response (FLuc and NLuc) [3]: elicits a coincidence response from both FLuc and NLuc; modulation of endogenous Parkin expression [3]: genuine modulator of endogenous Parkin expression
5 | Oc1ccc(C=Cc2cc(O)cc(O)c2)cc1 [Resveratrol] | – | – | – | coincident reporter response (FLuc and NLuc) [3]: do not elicit a coincident reporter response; signal obtained through reporter interference [3]: FLuc signal is obtained through reporter interference
6 | Cc1ccccc1CNc1ncnc2c1ncn2[C@@H]1O[C@H](CO)[C@@H](O)[C@H]1O [compound 3, Metrifudil] | 2.20 | 1.34 | 0.61 | –
7 | Nc1nc(Nc2ccccc2)nc2c1ncn2[C@@H]1O[C@H](CO)[C@@H](O)[C@H]1O [compound 4, 2-Phenylaminoadenosine] | 0.95 | 10.7 | 11.2 | –
8 | OC[C@H]1O[C@@H](n2cnc3c(NC4CCCCC4)ncnc32)[C@H](O)[C@@H]1O [compound 5, N6-Cyclohexyladenosine] | 0.67 | 16.9 | 25.1 | –
9 | OC[C@H]1O[C@@H](n2cnc3c(NC4CCCC4)ncnc32)[C@H](O)[C@@H]1O [compound 6, N6-Cyclopentyladenosine] | 0.75 | 0.95 | 1.26 | –
10 | OC[C@H]1O[C@H](n2cnc3c(N[C@H]4CCC[C@@H]4O)ncnc32)[C@H](O)[C@@H]1O [compound 7, GR 79236X] | 0.85 | – | – | EC50 [1, 4]: 2.69 µM; EC50 [1, 5]: 3.16 µM
11 | Nc1ccc(CCNc2ncnc3c2ncn3[C@@H]2O[C@H](CO)[C@@H](O)[C@H]2O)cc1 [compound 8, N6-2-(4-Aminophenyl)ethyladenosine] | 1.56 | 1.45 | 0.93 | –
12 | CNC(=O)[C@H]1O[C@@H](n2cnc3c(NCc4ccc(N)cc4)ncnc32)[C@H](O)[C@@H]1O [compound 9, AB-MECA] | 3.51 | – | – | EC50 [1, 4]: 1.51 µM; EC50 [1, 5]: 0.43 µM
13 | Nc1nc(Cl)nc2c1ncn2[C@@H]1O[C@H](CO)[C@@H](O)[C@H]1O [compound 11, 2-Chloroadenosine] | 1.13 | 0.43 | 0.38 | –
14 | CNc1ncnc2c1ncn2[C@@H]1O[C@H](CO)[C@@H](O)[C@H]1O [compound 12, N6-Methyladenosine] | 1.26 | 16.7 | 13.3 | –
15 | CCNC(=O)[C@H]1O[C@@H](n2cnc3c(N)ncnc32)[C@H](O)[C@@H]1O [compound 13, 5′-N-Ethylcarboxamidoadenosine] | 0.56 | – | – | EC50 [1, 4]: 0.3 µM; EC50 [1, 5]: 0.54 µM
16 | CCCCC#Cc1nc(NC)c2ncn([C@@H]3O[C@H](CO)[C@@H](O)[C@H]3O)c2n1 [compound 14, HEMADO] | 1.78 | – | – | EC50 [1, 4]: 2.69 µM; EC50 [1, 5]: 1.51 µM
17 | NC(=O)C1=CN([C@@H]2O[C@H](COP(=O)(O)OP(=O)(O)OC[C@H]3O[C@@H](n4cnc5c(N)ncnc54)[C@H](OP(=O)(O)O)[C@@H]3O)[C@@H](O)[C@H]2O)C=CC1 [compound 16, NADPH tetrasodium] | 0.81 | – | – | EC50 [1, 4]: 18.2 µM; EC50 [1, 5]: 22.4 µM
18 | Nc1nc(Cl)nc2c1ncn2[C@@H]1O[C@H](COP(=O)([O-])OP(=O)([O-])OP(=O)([O-])[O-])[C@@H](O)[C@H]1O.[Na+].[Na+].[Na+].[Na+] [compound 17, 2-Chloroadenosine triphosphate tetrasodium] | 2.96 | 11.5 | 3.89 | –
19 | CNc1cc(NS(=O)(=O)c2ccc(N)cc2)nc(NC)n1 [compound 20, Ro 04-6790 hydrochloride] | – | – | – | EC50 [1, 8]: 2.05 µM
20 | C[C@H](Cc1ccccc1)Nc1ncnc2c1ncn2[C@@H]1O[C@H](CO)[C@@H](O)[C@H]1O [cpd 1, R(−)-N6-(2-Phenylisopropyl)adenosine] | 3.32 | – | – | EC50 [1, 4]: 9.37 µM; EC50 [1, 5]: 2.82 µM
21 | OC[C@H]1O[C@@H](n2cnc3c(Nc4ccccc4)ncnc32)[C@H](O)[C@@H]1O [cpd 2, N6-Phenyladenosine] | 0.87 | 12.7 | 14.6 | –
22 | C#CCOC(=O)C1=CCCN(C)C1 [cpd 18, Arecaidine propargyl ester hydrobromide (APE)] | 1.16 | – | – | EC50 [1, 4]: 3.59 µM; EC50 [1, 5]: 3.09 µM; FLuc and RLuc signal outputs in the screen ([1]; qHTS, both reporters): coincident FLuc and RLuc signal outputs
23 | NC(=O)COc1c(F)cc(SCCNS(=O)(=O)c2ccccc2)cc1F [cpd 21, 2,6-Difluoro-4-[2-(phenylsulfonylamino)ethylthio]phenoxyacetamide] | – | – | – | EC50 [1, 9]: 21.4 µM
24 | NCCNS(=O)(=O)c1cccc2c(Cl)cccc12 [cpd 22, A3 hydrochloride] | – | – | – | EC50 [1, 8]: 15.8 µM
25 | COc1ccc(Cl)cc1C(=O)NCCc1ccc(S(=O)(=O)NC(=O)NC2CCCCC2)cc1 [cpd 23, Glybenclamide] | – | – | – | EC50 [1, 10]: 30.4 µM
26 | CC1=NS(=O)(=O)c2cc(Cl)ccc2N1 [cpd 24, Diazoxide] | – | – | – | EC50 [1, 10]: 9.15 µM
27 | N#CC(=C(/N)Sc1ccccc1N)/C(C#N)=C(\N)Sc1ccccc1N [cpd 25, U0126] | – | – | – | EC50 [1, 9]: 8.49 µM
28 | O=C(c1ccc(OCCN2CCCCC2)cc1)c1c(-c2ccc(O)cc2)sc2cc(O)ccc12 [cpd 26, Raloxifene hydrochloride] | – | – | – | EC50 [1, 10]: 12 µM
